Among the test systems are SNB-19; SF-295; HOP-62; SNB-75; SK-OV-3; U-251; CAKI-1; EKVX; Malme-3M; HCC 2998; SN12C; MDA-N; SK-MEL-28; KM12; MDA-MB-435; SK-MEL-5; NCI-H226; A549; HCT-15.
Test in all cases: DTP human tumour cell line panel, 48 h

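Grown in 96-well plates, cells were treated for 48 hours with each compound at five concentrations. Insufficient inhibition: endpoint recorded as highest concentration tested. GI50 is the concentration that inhibits growth by half.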 Active and inactive are the calls of the source. No stated cut-off is given here; in the data, active = GI50 up to about 1.1 µM and inactive = higher. Where only a bound is given, the exact number is not on record here.

The term GI50 denotes the concentration at which growth is held to half of that of the control. Turning to `Cn1c(=O)c2c(O)cc(N)nc2n(C)c1=O`, the GI50 in the assay on SNB-19, in the assay with SF-295, with HOP-62, in the assay with SNB-75, in the assay with SK-OV-3 and with U-251 was > 100 µM (inactive) throughout. Moreover, the GI50 in the assay on CAKI-1 is 28.9 µM (inactive); in the assay on EKVX, > 100 µM (inactive); in the assay with Malme-3M it was > 100 µM (inactive); in the assay with HCC 2998 it was > 100 µM (inactive); in the assay with SN12C, > 100 µM (inactive); with MDA-N, > 100 µM (inactive). In addition, the GI50 in the assay with SK-MEL-28, with KM12, in the assay with MDA-MB-435, in the assay with SK-MEL-5, in the assay with NCI-H226 and with A549 was > 100 µM (inactive) in each case.
As for `CC1Oc2cc3c(-c4c(O)cc(O)c5c(O)c6c(cc45)OC(C)C(C)C6=O)c(O)cc(O)c3c(O)c2C(=O)C1C` (centres undefined), the GI50 in the assay on SNB-19 is 0.0832 µM (active); in the assay on SF-295, 0.061 µM (active); in the assay with HOP-62, 0.282 µM (active); with SNB-75, 0.0675 µM (active); with SK-OV-3, 0.363 µM (active); with U-251 it was 0.038 µM (active). Further, the GI50 in the assay with CAKI-1 was 0.231 µM (active); in the assay on EKVX it was 0.116 µM (active); in the assay on Malme-3M it was 0.265 µM (active); in the assay on HCC 2998 it was 0.281 µM (active); with SN12C, 0.11 µM (active); in the assay on MDA-N, 0.359 µM (active). Further, the GI50 in the assay on SK-MEL-28 was 0.698 µM (active); in the assay with KM12, 0.0607 µM (active); with MDA-MB-435, 0.24 µM (active); in the assay on SK-MEL-5, 0.158 µM (active); in the assay with NCI-H226 it was 0.0871 µM (active); in the assay on A549, 0.0252 µM (active). Further, the GI50 in the assay with HCT-15 is 0.0474 µM.
Turning to `COc1cc2c(c(O)c1OC)C(=O)[C@@H]1CCC(=O)N1C2c1ccccc1` (some centres undefined), the GI50 in the assay on SNB-19 was > 100 µM (inactive); in the assay with SF-295, > 100 µM (inactive); in the assay with HOP-62, > 100 µM (inactive); in the assay on SNB-75 it was 35.6 µM (inactive); in the assay with SK-OV-3 it was > 100 µM (inactive); in the assay with U-251 it was 63.1 µM (inactive). The GI50 with CAKI-1 is > 100 µM (inactive); in the assay with EKVX it was 51.9 µM (inactive); with Malme-3M, > 100 µM (inactive); with HCC 2998 it was > 100 µM (inactive); in the assay with SN12C it was > 100 µM (inactive); with MDA-N it was > 100 µM (inactive). The GI50 with SK-MEL-28 is > 100 µM (inactive); in the assay on KM12, 67.5 µM (inactive); in the assay with MDA-MB-435 it was 90.6 µM (inactive); in the assay with SK-MEL-5, > 10 µM (inactive); with NCI-H226, > 100 µM (inactive); with A549, 59 µM (inactive). This molecule gave a GI50 in the assay on HCT-15 of over 100 µM.
Consider `CCN1CC(C)Cn2c(=O)[nH]c3cc(Br)cc1c32` (centres undefined), for which the GI50 in the assay on SNB-19 was 26.4 µM (inactive); with SF-295, 21.1 µM (inactive); with HOP-62, 30.5 µM (inactive); with SNB-75, 11.4 µM (inactive); in the assay on SK-OV-3, 27.7 µM (inactive); with U-251 it was 24 µM (inactive). Moreover, the GI50 in the assay on CAKI-1 was 13.9 µM (inactive); in the assay on EKVX, 3.3 µM (inactive); in the assay on Malme-3M, 64.4 µM (inactive); in the assay with HCC 2998, 32.8 µM (inactive); with SN12C, 44.7 µM (inactive); with MDA-N, 4.81 µM (inactive). In addition, the GI50 with SK-MEL-28 was 35.7 µM (inactive); in the assay with KM12, 22.9 µM (inactive); in the assay with MDA-MB-435, 2.75 µM (inactive); in the assay on SK-MEL-5, 19.1 µM (inactive); in the assay on NCI-H226, 11.9 µM (inactive); with A549, 25.6 µM (inactive). The same molecule showed a GI50 with HCT-15 of 14.6 µM.
`O=S1(=O)c2ccccc2N2CCCc3cc(Cl)cc1c32`: the GI50 in the assay on SNB-19 is 56.6 µM (inactive); with SF-295, 29.3 µM (inactive); with HOP-62, 41.1 µM (inactive); with SNB-75 it was 12.6 µM (inactive); with SK-OV-3, 51.9 µM (inactive); with CAKI-1, 61.2 µM (inactive). In addition, the GI50 in the assay on EKVX was > 100 µM (inactive); with Malme-3M, 70.6 µM (inactive); in the assay with HCC 2998 it was > 100 µM (inactive); in the assay on SN12C it was > 100 µM (inactive); with MDA-N it was > 100 µM (inactive); in the assay with SK-MEL-28, > 100 µM (inactive). The GI50 in the assay with KM12 is > 100 µM (inactive); in the assay with MDA-MB-435 it was > 100 µM (inactive); in the assay with SK-MEL-5, > 100 µM (inactive); in the assay with NCI-H226 it was > 100 µM (inactive); in the assay on A549, > 100 µM (inactive); in the assay on HCT-15, over 100 µM.
For `CN(C)CCCNC(=O)c1cc(NS(=O)(=O)c2ccc3c(c2)C(=O)c2ccccc2C3=O)cn1C`, the GI50 in the assay on SNB-19 is 12.8 µM (inactive); in the assay with SF-295 it was 31.3 µM (inactive); in the assay with HOP-62, 37.8 µM (inactive); with SNB-75, 30.8 µM (inactive); with SK-OV-3, 92.5 µM (inactive); in the assay with U-251, 29.1 µM (inactive). The GI50 in the assay with CAKI-1 was 67.6 µM (inactive); with EKVX it was > 100 µM (inactive); in the assay with Malme-3M, 5.5 µM (inactive); in the assay on HCC 2998, 24.5 µM (inactive); with SN12C, 29.1 µM (inactive); with MDA-N, 28.1 µM (inactive). Besides, the GI50 in the assay with SK-MEL-28 is 27.1 µM (inactive); in the assay on KM12, 17.8 µM (inactive); in the assay with MDA-MB-435 it was 25.4 µM (inactive); with SK-MEL-5, 13.1 µM (inactive); in the assay with NCI-H226, 22.9 µM (inactive); in the assay with A549, 35.9 µM (inactive). For the same molecule, halving of growth in the assay with HCT-15 (GI50) required 42.8 µM.
`Nc1nc(N)c(NC(=O)CCCO)c(=O)[nH]1`: the GI50 with SNB-19, in the assay on SF-295, in the assay with HOP-62, in the assay on SNB-75, in the assay with SK-OV-3 and with U-251 was > 100 µM (inactive) in each case. Further, the GI50 in the assay with CAKI-1, with EKVX, in the assay on Malme-3M, with HCC 2998, in the assay on SN12C and in the assay with MDA-N was > 100 µM (inactive) each time. For the same molecule, the GI50 with KM12 is > 100 µM (inactive); in the assay with MDA-MB-435 it was > 100 µM (inactive); in the assay with SK-MEL-5 it was > 100 µM (inactive); with NCI-H226 it was > 100 µM (inactive); with A549, > 100 µM (inactive); in the assay on HCT-15 it was over 100 µM.
Regarding `COC(=O)/C(C#N)=C/c1cc(C(C)(C)C)c(O)c(C(C)(C)C)c1`, the GI50 was 3.17 µM (inactive) with SNB-19; 1.74 µM (inactive) in the assay on SF-295; 3.15 µM (inactive) in the assay on HOP-62; 3.3 µM (inactive) in the assay on SNB-75; 2.48 µM (inactive) in the assay on SK-OV-3; 2.26 µM (inactive) in the assay with U-251. Further, the GI50 was 2.89 µM (inactive) in the assay on CAKI-1; 2.33 µM (inactive) with EKVX; 5.55 µM (inactive) with Malme-3M; 2.7 µM (inactive) in the assay on HCC 2998; 1.48 µM (inactive) with SN12C; 2.92 µM (inactive) in the assay with MDA-N. Also, the GI50 is 2.62 µM (inactive) in the assay with SK-MEL-28; 2.62 µM (inactive) with KM12; 3.21 µM (inactive) with MDA-MB-435; 1.18 µM (inactive) in the assay with SK-MEL-5; 1.96 µM (inactive) in the assay on NCI-H226; 2.64 µM (inactive) in the assay on A549. In the assay on HCT-15, this molecule showed a GI50 of 2.67 µM.
Take `Cc1nn(C(=O)c2ccc(Cl)cc2)c2c1C(/C=C/c1ccccc1)SC(=N)N2` (centres undefined): the GI50 with SNB-19, in the assay on SF-295, in the assay with HOP-62, in the assay on SNB-75, with SK-OV-3 and with U-251 was > 10 µM (inactive) in each case. Moreover, the GI50 in the assay on CAKI-1, with EKVX, with Malme-3M, with HCC 2998, with SN12C and in the assay with MDA-N was > 10 µM (inactive) in each case. For the same molecule, the GI50 in the assay with SK-MEL-28, in the assay with KM12, in the assay on MDA-MB-435, in the assay with SK-MEL-5, in the assay with NCI-H226 and with A549 was > 10 µM (inactive) each time. The same molecule had a 50% growth inhibitory concentration (GI50) in the assay with HCT-15 of over 10 µM.
As to `COc1ccc2c(C(=O)c3cn(CCN4CCOCC4)c4ccccc34)cccc2c1`, the GI50 in the assay with SF-295 is 5.6 µM (inactive); in the assay with HOP-62 it was > 22 µM (inactive); in the assay on SNB-75, 88.5 µM (inactive); in the assay with SK-OV-3, 4.22 µM (inactive); with U-251, 7.33 µM (inactive); in the assay on CAKI-1 it was > 46 µM (inactive). Besides, the GI50 with EKVX was > 48.2 µM (inactive); with Malme-3M, 15.8 µM (inactive); in the assay with HCC 2998 it was 41.7 µM (inactive); in the assay on SN12C, > 71.4 µM (inactive); in the assay on MDA-N, 37.8 µM (inactive); in the assay with SK-MEL-28, > 62.4 µM (inactive). For the same molecule, the GI50 in the assay on KM12 was 3.95 µM (inactive); in the assay on MDA-MB-435 it was 8.26 µM (inactive); with SK-MEL-5, 60 µM (inactive); with NCI-H226, > 100 µM (inactive); in the assay on A549, 6.76 µM (inactive); with HCT-15, 51.8 µM.
Take `C1CCNCC1.CN(C)c1ccc(/C=C2/NC(=S)NC2=O)cc1`: the GI50 was 86.7 µM (inactive) with SNB-19; 40.5 µM (inactive) with SF-295; > 100 µM (inactive) in the assay with HOP-62; 49.7 µM (inactive) with SNB-75; 69.3 µM (inactive) in the assay on SK-OV-3; 73.3 µM (inactive) with U-251. Further, the GI50 was 62.5 µM (inactive) in the assay with CAKI-1; 50.4 µM (inactive) in the assay on EKVX; > 100 µM (inactive) in the assay on Malme-3M; 7.26 µM (inactive) in the assay on HCC 2998; > 100 µM (inactive) in the assay on SN12C; 36.3 µM (inactive) with MDA-N. In addition, the GI50 with SK-MEL-28 is 87.3 µM (inactive); in the assay on MDA-MB-435, 27.2 µM (inactive); in the assay on SK-MEL-5, 30.8 µM (inactive); in the assay on NCI-H226 it was 41.1 µM (inactive); with A549, 46.8 µM (inactive); in the assay on HCT-15, 45.3 µM.

The values above are taken from ChEMBL document CHEMBL1201862, “PubChem BioAssay data set” (2004).
